From paper PMC6366416, “Synthesis and in vitro anticancer activity of certain novel 1-(2-methyl-6-arylpyridin-3-yl)-3-phenylureas as apoptosis-inducing agents” (Journal of Enzyme Inhibition and Medicinal Chemistry, 2019)

Columns and labels:
786-0 = experiment: NCI one-dose SRB growth inhibition; format: cell-based; conditions: Homo sapiens, Renal Cancer, 48 h, read-out: GI% 786-0
Experimental: (§1) The antitumor assay was performed according to the protocol of the Drug Evaluation Branch, NCI, Bethesda[24–26]. A 48 h drug exposure protocol was adopted, and sulforhodamine B (SRB) assay[27] was utilized to assess the cell growth and viability, as reported earlier[17]^,[28].
(§2) The structures of all the newly synthesized pyridines 5a–l were submitted to the National Cancer Institute (NCI) Developmental Therapeutic Program (www.dtp.nci.nih.gov). […] Nine different types of cancer were tested in this assay: colon, ovarian, prostate, leukemia, melanoma, CNS, renal, breast and lung cancers. A 48 h drug exposure protocol was adopted, and sulforhodamine B (SRB) assay[27] was utilized to assess the cell growth and viability.

EKVX = experiment: NCI one-dose SRB growth inhibition; format: cell-based; conditions: Homo sapiens, Non-Small Cell Lung Cancer, 48 h, read-out: GI% EKVX
Experimental: as §1, §2

HCC-2998 = experiment: NCI one-dose SRB growth inhibition; format: cell-based; conditions: Homo sapiens, Colon Cancer, 48 h, read-out: GI% HCC-2998
Experimental: as §1, §2

HCT-116 = experiment: NCI one-dose SRB growth inhibition; format: cell-based; conditions: Homo sapiens, HCT-116, 48 h, Colon Cancer, read-out: GI% HCT-116
Experimental: as §1, §2

HCT-15 = experiment: NCI one-dose SRB growth inhibition; format: cell-based; conditions: Homo sapiens, HCT-15, 48 h, Colon Cancer, read-out: GI% HCT-15
Experimental: as §1, §2

HL-60(TB) = experiment: NCI one-dose SRB growth inhibition; format: cell-based; conditions: Homo sapiens, Leukemia, 48 h, read-out: GI% HL-60(TB)
Experimental: as §1, §2

HOP-62 = experiment: NCI one-dose SRB growth inhibition; format: cell-based; conditions: Homo sapiens, Non-Small Cell Lung Cancer, 48 h, read-out: GI% HOP-62
Experimental: as §1, §2

HS 578T = experiment: NCI one-dose SRB growth inhibition; format: cell-based; conditions: Homo sapiens, Breast Cancer, 48 h, read-out: GI% HS 578T
Experimental: as §1, §2

HT29 = experiment: NCI one-dose SRB growth inhibition; format: cell-based; conditions: Homo sapiens, HT-29, 48 h, Colon Cancer, read-out: GI% HT29
Experimental: as §1, §2

K-562 = experiment: NCI one-dose SRB growth inhibition; format: cell-based; conditions: Homo sapiens, K562, 48 h, Leukemia, read-out: GI% K-562
Experimental: as §1, §2

MALME-3M = experiment: NCI one-dose SRB growth inhibition; format: cell-based; conditions: Homo sapiens, Melanoma, 48 h, read-out: GI% MALME-3M
Experimental: as §1, §2

MCF7 = experiment: NCI one-dose SRB growth inhibition; format: cell-based; conditions: Homo sapiens, Breast Cancer, 48 h, read-out: GI% MCF7
Experimental: as §1, §2

MDA-MB-231 = experiment: NCI one-dose SRB growth inhibition; format: cell-based; conditions: Homo sapiens, Breast Cancer, 48 h, read-out: GI% MDA-MB-231
Experimental: as §1, §2

MDA-MB-468 = experiment: NCI one-dose SRB growth inhibition; format: cell-based; conditions: Homo sapiens, Breast Cancer, 48 h, read-out: GI% MDA-MB-468
Experimental: as §1, §2

NCI-H322M = experiment: NCI one-dose SRB growth inhibition; format: cell-based; conditions: Homo sapiens, Non-Small Cell Lung Cancer, 48 h, read-out: GI% NCI-H322M
Experimental: as §1, §2

OVCAR-3 = experiment: NCI one-dose SRB growth inhibition; format: cell-based; conditions: Homo sapiens, OVCAR-3, 48 h, Ovarian Cancer, read-out: GI% OVCAR-3
Experimental: as §1, §2

OVCAR-4 = experiment: NCI one-dose SRB growth inhibition; format: cell-based; conditions: Homo sapiens, Ovarian Cancer, 48 h, read-out: GI% OVCAR-4
Experimental: as §1, §2

SF-268 = experiment: NCI one-dose SRB growth inhibition; format: cell-based; conditions: Homo sapiens, CNS Cancer, 48 h, read-out: GI% SF-268
Experimental: as §1, §2

SF-295 = experiment: NCI one-dose SRB growth inhibition; format: cell-based; conditions: Homo sapiens, CNS Cancer, 48 h, read-out: GI% SF-295
Experimental: as §1, §2

SK-MEL-28 = experiment: NCI one-dose SRB growth inhibition; format: cell-based; conditions: Homo sapiens, Melanoma, 48 h, read-out: GI% SK-MEL-28
Experimental: as §1, §2

SNB-19 = experiment: NCI one-dose SRB growth inhibition; format: cell-based; conditions: Homo sapiens, CNS Cancer, 48 h, read-out: GI% SNB-19
Experimental: as §1, §2

TK-10 = experiment: NCI one-dose SRB growth inhibition; format: cell-based; conditions: Homo sapiens, Renal Cancer, 48 h, read-out: GI% TK-10
Experimental: as §1, §2

U251 = experiment: NCI one-dose SRB growth inhibition; format: cell-based; conditions: Homo sapiens, U-251, CNS Cancer, 48 h, read-out: GI% U251
Experimental: as §1, §2

A549 cell line = experiment: MTT anti-proliferative assay; format: cell-based; conditions: Homo sapiens, 48 h of incubation, mean ± SD of three experiments
Experimental: (§3) A549 (non-small cell lung cancer cell line) and HCT-116 (human colon cancer cell line), were obtained from American Type Culture Collection (Manassas, VA, USA). The cells were maintained in Dulbecco’s Modified Eagle’s Medium (DMEM) (Sigma-Aldrich, St. Louis, MO), and supplemented with 10% heat-inactivated FBS (Hyclone), 10 μg/mL of insulin (Manufacturer, Sigma, St. Louis, MO, USA), and 1% penicillin-streptomycin. MTT assay[29] was adopted to assess the in vitro antitumor activity of the newly synthesized pyridines 5a–l according to the reported procedures, using Doxorubicin as a standard treatment. Experimental conditions were tested using three replicates (three wells of the 96-well plate per experimental condition) and all experiments were carried out in triplicates. IC50 values were calculated by the use of the equation for Boltzman sigmoidal concentration–response curve using the nonlinear regression fitting models by Graph Pad, Prism version 5 (GraphPad Software Inc., La Jolla, CA).
(§4) All newly synthesized pyridines 5a–l were examined for their anti-proliferative activity towards two cancer cell lines: non-small cell lung cancer A549 cell line and colon cancer HCT-116 cell line. The MTT colorimetric assay was adopted to assess the anti-proliferative activity as described by Mosmann[29]. Doxorubicin was used as a control in this assay.

HCT-116 cell line = experiment: MTT anti-proliferative assay; format: cell-based; conditions: Homo sapiens, 48 h of incubation, mean ± SD of three experiments
Experimental: as §3, §4

WI-38 cell line = experiment: MTT cytotoxicity towards non-tumorigenic cells; format: cell-based, human; conditions: for IC50: WI-38, MTT, non-tumorigenic human lung fibroblast, mean ± SD of three experiments; for S. I. WI-38/A549: selectivity index, IC50 WI-38 / IC50 A549
Experimental: The cytotoxic activity of all synthesized pyridines 5a–l were assessed against non-tumorigenic human lung fibroblast WI-38 cell line to investigate their safety, using the MTT colorimetric assay.

| SMILES | inhibition at 10 µM (786-0) [%] | inhibition at 10 µM (EKVX) [%] | inhibition at 10 µM (HCC-2998) [%] | inhibition at 10 µM (HCT-116) [%] | inhibition at 10 µM (HCT-15) [%] | inhibition at 10 µM (HL-60(TB)) [%] | inhibition at 10 µM (HOP-62) [%] | inhibition at 10 µM (HS 578T) [%] | inhibition at 10 µM (HT29) [%] | inhibition at 10 µM (K-562) [%] | inhibition at 10 µM (MALME-3M) [%] | inhibition at 10 µM (MCF7) [%] | inhibition at 10 µM (MDA-MB-231) [%] | inhibition at 10 µM (MDA-MB-468) [%] | inhibition at 10 µM (NCI-H322M) [%] | inhibition at 10 µM (OVCAR-3) [%] | inhibition at 10 µM (OVCAR-4) [%] | inhibition at 10 µM (SF-268) [%] | inhibition at 10 µM (SF-295) [%] | inhibition at 10 µM (SK-MEL-28) [%] | further results |
| --- | --- | --- | --- | --- | --- | --- | --- | --- | --- | --- | --- | --- | --- | --- | --- | --- | --- | --- | --- | --- | --- |
| Cc1nc(-c2cccs2)ccc1NC(=O)Nc1ccc(F)cc1 [Compound 5h, 1-(4-Fluorophenyl)-3-(2-methyl-6-(thiophen-2-yl)pyridin-3-yl)urea] | < 10 | < 10 | 14 | 22 | 26 | 15 | < 10 | < 10 | 12 | 22 | < 10 | 22 | < 10 | 16 | < 10 | < 10 | < 10 | < 10 | < 10 | < 10 | inhibition at 10 µM (SNB-19): < 10%; inhibition at 10 µM (TK-10): < 10%; inhibition at 10 µM (U251): < 10%; IC50 (A549 cell line): 10.6 ± 0.86 µM; IC50 (HCT-116 cell line): 8.25 ± 0.84 µM; IC50 (WI-38 cell line): 143 ± 8.38 µM; S. I. WI-38/A549 (WI-38 cell line): 13.4 |
| Cc1nc(-c2ccc(Cl)cc2)ccc1NC(=O)Nc1ccc2c(c1)OCO2 [Compound 5g, 1-(Benzo[d][1,3]dioxol-5-yl)-3-(6-(4-chlorophenyl)-2-methylpyridin-3-yl)urea] | < 10 | < 10 | < 10 | < 10 | < 10 | 24 | < 10 | < 10 | 11 | 21 | < 10 | < 10 | < 10 | < 10 | < 10 | < 10 | < 10 | < 10 | < 10 | < 10 | inhibition at 10 µM (SNB-19): < 10%; inhibition at 10 µM (TK-10): < 10%; inhibition at 10 µM (U251): < 10%; IC50 (A549 cell line): 6.72 ± 0.38 µM; IC50 (WI-38 cell line): 63.5 ± 5.08 µM; S. I. WI-38/A549 (WI-38 cell line): 9.4 |
| CCOC(=O)c1ccc(NC(=O)Nc2ccc(-c3ccc(F)cc3)nc2C)cc1 [Compound 5c, Ethyl 4-(3-(6-(4-fluorophenyl)-2-methylpyridin-3-yl)ureido)benzoate] | < 10 | < 10 | < 10 | < 10 | < 10 | 13 | < 10 | < 10 | 18 | < 10 | < 10 | 20 | < 10 | < 10 | < 10 | < 10 | < 10 | < 10 | < 10 | < 10 | inhibition at 10 µM (SNB-19): < 10%; inhibition at 10 µM (TK-10): < 10%; inhibition at 10 µM (U251): < 10%; IC50 (A549 cell line): 9.61 ± 1.03 µM; IC50 (WI-38 cell line): 123 ± 10.2 µM; S. I. WI-38/A549 (WI-38 cell line): 12.8 |
| Cc1nc(-c2cccs2)ccc1NC(=O)Nc1ccc(Cl)cc1 [Compound 5i, 1-(4-Chlorophenyl)-3-(2-methyl-6-(thiophen-2-yl)pyridin-3-yl)urea] | < 10 | < 10 | < 10 | < 10 | < 10 | 20 | < 10 | < 10 | < 10 | < 10 | < 10 | 12 | < 10 | 17 | < 10 | < 10 | < 10 | < 10 | < 10 | < 10 | inhibition at 10 µM (SNB-19): < 10%; inhibition at 10 µM (TK-10): < 10%; inhibition at 10 µM (U251): < 10%; IC50 (A549 cell line): 8.73 ± 0.71 µM; IC50 (WI-38 cell line): 129 ± 12 µM; S. I. WI-38/A549 (WI-38 cell line): 14.8 |
